Laboratory results as given in US12325703B2, “Fused ring compound as FGFR and VEGFR dual inhibitor” (CGENETECH (SUZHOU, CHINA) CO., LTD., priority 2019, dated 2025).
Structures can show the parent of a compound that is named as a salt.

Assays:
human FGFR1 = target: T1, human FGFR1 (Homo sapiens, UniProt P11362); assay: 33P isotope-labeled kinase activity test (Reaction Biology Corp), FGFR1; assay type: biochemical; conditions: 33P-ATP 5 μM, kinase 1.5 nM, 120 min room temperature
T1 construct: purchased Invitrogen PV3146
T1 sequence (P11362 22-822): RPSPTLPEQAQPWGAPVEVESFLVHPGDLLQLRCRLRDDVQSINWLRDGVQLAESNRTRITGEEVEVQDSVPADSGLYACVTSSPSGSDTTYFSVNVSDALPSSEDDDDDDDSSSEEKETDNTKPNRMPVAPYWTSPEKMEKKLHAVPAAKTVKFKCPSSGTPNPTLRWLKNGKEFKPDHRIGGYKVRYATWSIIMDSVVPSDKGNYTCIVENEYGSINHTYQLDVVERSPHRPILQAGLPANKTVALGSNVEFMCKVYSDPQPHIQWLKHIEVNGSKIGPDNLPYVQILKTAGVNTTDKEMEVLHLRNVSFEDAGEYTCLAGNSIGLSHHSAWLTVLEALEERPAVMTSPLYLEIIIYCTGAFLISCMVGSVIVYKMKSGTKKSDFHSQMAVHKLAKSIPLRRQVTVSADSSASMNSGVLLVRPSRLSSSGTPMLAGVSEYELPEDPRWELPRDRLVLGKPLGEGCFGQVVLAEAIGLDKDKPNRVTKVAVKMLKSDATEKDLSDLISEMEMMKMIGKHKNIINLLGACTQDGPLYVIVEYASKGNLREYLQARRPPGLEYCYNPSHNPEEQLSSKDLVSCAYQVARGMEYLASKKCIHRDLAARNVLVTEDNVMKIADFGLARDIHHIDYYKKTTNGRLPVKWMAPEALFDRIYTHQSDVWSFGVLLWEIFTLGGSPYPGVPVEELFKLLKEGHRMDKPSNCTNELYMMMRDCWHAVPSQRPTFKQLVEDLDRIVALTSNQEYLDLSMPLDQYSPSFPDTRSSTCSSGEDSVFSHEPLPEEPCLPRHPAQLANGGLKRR
Experimental: (§1) The IC50 value was determined using ^33P isotope-labeled kinase activity test (Reaction Biology Corp) to evaluate the inhibitory ability of the compounds to be tested on human FGFR1, FGFR2 and VEGFR2.
(§2) Buffer conditions: 20 mM Hepes (pH 7.5), 10 mM MgCl2, 1 mM EGTA, 0.02% Brij35, 0.02 mg/mL BSA, 0.1 mM Na3VO4, 2 mM DTT, 1% DMSO.
(§3) Test steps: At room temperature, the compounds to be tested were dissolved in DMSO to prepare a 10 mM solution for use. The substrate was dissolved in the newly-prepared buffer, and the kinase to be tested was added thereto and mixed well. The DMSO solution in which the compounds to be tested were dissolved was added to the above-mentioned homogeneous reaction solution using acoustic technology (Echo 550). […] After incubating for 15 minutes, to the reaction solution was added ^33P-ATP (activity: 0.01 μCi/μL, with corresponding concentration listed in Table 10) to start the reaction. […] The kinase activity data was expressed by comparing the kinase activity of the groups containing the compounds to be tested with that of the blank group (containing only DMSO). The IC50 value was obtained by curve fitting using Prism4 software (GraphPad), and the experimental results were shown in Table 11.

human FGFR2 = target: T2, human FGFR2 (Homo sapiens, UniProt P21802); assay: 33P isotope-labeled kinase activity test (Reaction Biology Corp), FGFR2; assay type: biochemical; conditions: 33P-ATP 5 μM, kinase 0.45 nM, 120 min room temperature
T2 construct: purchased Invitrogen PV3368
T2 sequence (P21802 22-821): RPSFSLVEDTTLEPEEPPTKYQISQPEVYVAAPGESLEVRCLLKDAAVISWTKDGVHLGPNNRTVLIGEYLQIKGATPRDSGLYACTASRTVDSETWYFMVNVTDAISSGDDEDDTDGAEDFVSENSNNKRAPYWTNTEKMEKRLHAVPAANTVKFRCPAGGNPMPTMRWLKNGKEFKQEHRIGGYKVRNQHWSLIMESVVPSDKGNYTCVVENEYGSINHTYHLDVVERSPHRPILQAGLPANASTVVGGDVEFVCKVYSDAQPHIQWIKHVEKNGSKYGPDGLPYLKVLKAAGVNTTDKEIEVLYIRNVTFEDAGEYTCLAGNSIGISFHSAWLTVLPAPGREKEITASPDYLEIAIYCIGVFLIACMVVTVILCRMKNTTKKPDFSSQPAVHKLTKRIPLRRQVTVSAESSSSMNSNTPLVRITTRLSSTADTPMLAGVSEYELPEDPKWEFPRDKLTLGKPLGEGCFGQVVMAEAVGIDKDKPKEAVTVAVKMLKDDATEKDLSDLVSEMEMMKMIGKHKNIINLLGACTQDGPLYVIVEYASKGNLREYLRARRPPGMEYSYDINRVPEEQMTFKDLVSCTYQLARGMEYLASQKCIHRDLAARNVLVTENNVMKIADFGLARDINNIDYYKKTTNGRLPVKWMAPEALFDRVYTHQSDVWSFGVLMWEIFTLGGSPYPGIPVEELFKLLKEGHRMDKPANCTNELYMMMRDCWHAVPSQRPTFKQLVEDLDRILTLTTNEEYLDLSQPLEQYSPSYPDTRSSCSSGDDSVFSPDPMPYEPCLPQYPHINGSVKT
Experimental: as §1, §2, §3

[1] = test system: human gastric cancer SNU-16 cells expressing FGFR2; assay: Cell activity (proliferation) test of gastric cancer cell line SNU-16, CellTiter-Glo; assay type: cell-based; conditions: inhibition of proliferation
Experimental: To test the inhibitory effect of the compounds on the proliferation of human gastric cancer SNU-16 cells expressing FGFR2.
The compounds used in the test were subjected to 3-fold concentration dilution, the concentration starting from 10 μM and subjected to […], resulting in 9 concentrations: 10 μM, 2.50 μM, 0.62 μM, 0.156 μM, 39.1 nM, 9.8 nM, 2.4 nM, 0.61 nM, and 0.15 nM.
(1) Promega CellTiter-Glo luminescent cell viability assay kit (Promega-G7573).
(2) 2104 EnVision multi-tag reader, PerkinElmer.
The inhibition rate of different doses of the compounds would be calculated in the Excel file, and the IC50 data was obtained by parametric curve fitting (GraphPad Software).

human VEGFR2 = target: T3, human VEGFR2 (Homo sapiens, UniProt P35968); assay: 33P isotope-labeled kinase activity test (Reaction Biology Corp), VEGFR2; assay type: biochemical; conditions: 33P-ATP 20 μM, kinase 1 nM, 120 min room temperature
T3 construct: purchased Invitrogen PR5992C
T3 sequence (P35968 20-1356): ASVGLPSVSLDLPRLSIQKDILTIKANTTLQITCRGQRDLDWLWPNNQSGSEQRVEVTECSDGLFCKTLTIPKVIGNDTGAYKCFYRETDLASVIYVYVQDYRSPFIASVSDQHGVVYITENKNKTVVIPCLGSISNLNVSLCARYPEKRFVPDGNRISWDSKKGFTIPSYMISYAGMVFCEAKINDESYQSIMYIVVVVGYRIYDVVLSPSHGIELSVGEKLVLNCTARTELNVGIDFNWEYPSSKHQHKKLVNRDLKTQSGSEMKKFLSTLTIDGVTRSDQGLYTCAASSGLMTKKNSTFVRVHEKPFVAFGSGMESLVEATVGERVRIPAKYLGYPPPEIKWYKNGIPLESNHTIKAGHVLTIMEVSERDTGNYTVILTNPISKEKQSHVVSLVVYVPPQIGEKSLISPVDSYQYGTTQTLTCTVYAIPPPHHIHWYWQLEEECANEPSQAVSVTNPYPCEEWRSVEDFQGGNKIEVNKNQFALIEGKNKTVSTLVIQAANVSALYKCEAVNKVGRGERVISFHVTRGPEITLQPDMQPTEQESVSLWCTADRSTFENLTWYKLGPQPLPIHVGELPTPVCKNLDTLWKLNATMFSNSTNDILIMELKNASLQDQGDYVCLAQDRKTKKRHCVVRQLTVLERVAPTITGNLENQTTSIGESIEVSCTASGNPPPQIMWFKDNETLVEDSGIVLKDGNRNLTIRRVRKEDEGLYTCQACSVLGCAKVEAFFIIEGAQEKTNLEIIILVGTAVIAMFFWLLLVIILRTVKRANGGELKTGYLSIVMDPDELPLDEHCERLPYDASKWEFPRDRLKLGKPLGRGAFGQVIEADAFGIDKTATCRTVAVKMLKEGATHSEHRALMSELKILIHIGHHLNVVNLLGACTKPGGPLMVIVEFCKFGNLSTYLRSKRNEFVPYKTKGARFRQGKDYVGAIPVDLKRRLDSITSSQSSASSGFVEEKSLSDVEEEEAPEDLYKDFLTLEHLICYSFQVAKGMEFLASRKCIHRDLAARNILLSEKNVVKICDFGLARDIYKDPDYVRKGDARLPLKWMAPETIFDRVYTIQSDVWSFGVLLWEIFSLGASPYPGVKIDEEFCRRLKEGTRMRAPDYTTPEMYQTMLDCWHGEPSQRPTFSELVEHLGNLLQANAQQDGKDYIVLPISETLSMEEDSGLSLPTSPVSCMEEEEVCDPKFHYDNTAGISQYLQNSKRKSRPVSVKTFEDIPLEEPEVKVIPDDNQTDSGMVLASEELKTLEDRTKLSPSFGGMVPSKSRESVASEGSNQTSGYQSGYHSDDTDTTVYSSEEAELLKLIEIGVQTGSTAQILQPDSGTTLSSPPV
Experimental: as §1, §2, §3

SMILES | IC50 (human FGFR2) | other results
CC(=O)Nc1cc(-c2ccc(F)cc2F)cc(-c2cnn3cc(-c4cnn(C)c4)ccc23)c1 [Compound 3] |  | IC50 (human FGFR1): 2.37 nM
CC(C)(O)Cn1cc(-c2ccc3c(-c4cc(NS(C)(=O)=O)cc(-c5ncc(F)cc5F)c4)cnn3c2)cn1 [Compound 31] | 1.79 nM | 
O=S(=O)(Nc1cc(-c2ccc(F)cc2F)cc(-c2cnn3cc(-c4cnn(C5CCNCC5)c4)ccc23)c1)C1CC1 [Hydrochloride salt of compound 51] | 1.27 nM | 
Cn1cc(-c2ccc3c(c2)ncn3-c2cc(NS(=O)(=O)C3CC3)cc(-c3ccc(F)cc3F)c2)cn1 [Comparative example 1, reference compound] |  | IC50 [1]: 62 nM
Cc1ncn(-c2ccc3c(-c4cc(NS(C)(=O)=O)cc(-c5ccc(F)cc5F)c4)cnn3c2)n1 [Compound 19] | 88.6 nM | 
CS(=O)(=O)Nc1cc(-c2ncc(F)cc2F)cc(-c2cnn3cc(-c4cnn(CCN5CCOCC5)c4)ccc23)c1 [Compound 38] | 0.72 nM | 
Cn1cc(-c2ccc3c(-c4cc(NCC(C)(C)O)cc(-c5ccc(F)cc5F)c4)cnn3c2)cn1 [Compound 54] | 10.6 nM | 
CS(=O)(=O)Nc1cc(-c2ncc(F)cc2F)cc(-c2cnn3cc(-c4cnn(CC5COCCN5)c4)ccc23)c1 (stereo not shown) [Compound 44] | 0.72 nM | IC50 (human VEGFR2): 1.4 nM
Cn1cc(-c2ccc3c(-c4cc(NC(=O)NC5CC5)cc(-c5ccc(F)cc5F)c4)cnn3c2)cn1 [Compound 23] | 1.88 nM | 
CS(=O)(=O)Nc1cc(-c2ccc(F)cc2F)cc(-c2cnn3cc(-c4cnn(C5CCNCC5)c4)ccc23)c1 [Hydrochloride salt of compound 21] | 0.57 nM | IC50 [1]: 9.6 nM
Cn1cnc(-c2ccc3c(-c4cc(NS(C)(=O)=O)cc(-c5ccc(F)cc5F)c4)cnn3c2)c1 [Trifluoroacetate salt of compound 27] | 2.55 nM | IC50 [1]: 11.5 nM
Cn1cc(-c2ccc3c(-c4cc(-c5ccc(F)cc5F)cc(NS(=O)(=O)C5CC5)n4)cnn3c2)cn1 [Compound 42] | 1.06 nM | 
CN(C)CCn1cc(-c2ccc3c(-c4cc(NS(C)(=O)=O)cc(-c5ccc(F)cc5F)c4)cnn3c2)cn1 [Compound 20] | 0.23 nM | IC50 [1]: 7.5 nM
Cn1cc(-c2ccc3c(-c4cc(NS(=O)(=O)C5CC5)cc(-c5ccc(F)nc5)c4)cnn3c2)cn1 [Trifluoroacetate salt of compound 9] | 73.3 nM | 
CCS(=O)(=O)Nc1cc(-c2cnn3cc(-c4cnn(C)c4)ccc23)cc(-c2ccc(F)cc2F)n1 [Compound 13] | 2.98 nM | 
Cn1cc(-c2ccc3c(-c4cc(NCC(C)(C)O)cc(-c5ncc(F)cc5F)c4)cnn3c2)cn1 [Compound 49] | 2.29 nM | 
CONC(=O)Nc1cc(-c2ccc(F)cc2F)cc(-c2cnn3cc(-c4cnn(C)c4)ccc23)c1 [Compound 24] | 10.1 nM | 
Cn1cc(-c2ccc3c(-c4cc(NS(C)(=O)=O)cc(-c5ncc(F)cc5F)c4)cnn3c2)cn1 [Trifluoroacetate salt of compound 32] | 1.09 nM | 
CS(=O)(=O)Nc1cc(-c2ncc(F)cc2F)cc(-c2cnn3cc(-c4cnn(CC5COCCN5Cc5ccccc5)c4)ccc23)c1 (stereo not shown) [Compound 45] | 29.6 nM | IC50 (human VEGFR2): 11.2 nM
Cn1cc(-c2ccc3c(-c4cc(NCC(O)CO)cc(-c5ncc(F)cc5F)c4)cnn3c2)cn1 (stereo not shown) [Compound 50] | 1.05 nM | IC50 (human VEGFR2): 3.82 nM
Cn1cnc(-c2ccc3c(-c4cc(NS(C)(=O)=O)cc(-c5ccc(F)cc5F)c4)cnn3c2)n1 [Compound 7] |  | IC50 (human FGFR1): 135 nM
CS(=O)(=O)Nc1cc(-c2cnn3cc(-c4cnn(CCN5CCOCC5)c4)ccc23)cc(-c2ccc(F)cc2F)n1 [Trifluoroacetate salt of compound 29] | 3.98 nM | 
Cn1cc(-c2ccc3c(-c4cc(NCC5COC(C)(C)O5)cc(-c5ccc(F)cc5F)c4)cnn3c2)cn1 (stereo not shown) [Compound 52] | 6.59 nM | IC50 (human VEGFR2): 21.4 nM
Cn1cc(-c2ccc3c(-c4cc(NCC(O)CO)cc(-c5ccc(F)cc5F)c4)cnn3c2)cn1 (stereo not shown) [Compound 53] | 5.59 nM | IC50 (human VEGFR2): 3.63 nM
Cn1cc(-c2ccc3c(-c4cc(NS(=O)(=O)C5CC5)nc(-c5ccc(F)cc5F)c4)cnn3c2)cn1 [Compound 14] |  | IC50 (human FGFR1): 10.3 nM
CS(=O)(=O)Nc1cc(-c2ncc(F)cc2F)cc(-c2cnn3cc(-c4cnn(CC(O)CO)c4)ccc23)c1 (stereo not shown) [Compound 34] | 0.42 nM | IC50 (human VEGFR2): 0.29 nM

SMILES | IC50 (human FGFR2) | other results
Cn1cc(-c2ccc3c(-c4cc(-c5ccc(F)cc5F)cc(NS(C)(=O)=O)n4)cnn3c2)cn1 [Compound 41] | 1.81 nM | 
Cn1cc(-c2ccc3c(-c4cc(NC(=O)N5CCC(O)C5)cc(-c5ccc(F)cc5F)c4)cnn3c2)cn1 (stereo not shown) [Compound 25] | 40.2 nM | IC50 (human VEGFR2): 22.4 nM
CS(=O)(=O)CCCn1cc(-c2ccc3c(-c4cc(NS(C)(=O)=O)cc(-c5ncc(F)cc5F)c4)cnn3c2)cn1 [Compound 40] | 0.77 nM | IC50 (human VEGFR2): 1.99 nM
CS(=O)(=O)Nc1cc(-c2ncc(F)cc2F)cc(-c2cnn3cc(C4CC4)ccc23)c1 [Compound 35] | 49.2 nM | 
CC(C)Nc1cc(-c2ccc(F)cc2F)cc(-c2cnn3cc(-c4cnn(C)c4)ccc23)c1 [Compound 6] |  | IC50 (human FGFR1): 17 nM
CCS(=O)(=O)Nc1cc(-c2ccc(F)cc2F)cc(-c2cnn3cc(-n4cnc(C)n4)ccc23)c1 [Compound 17] | 142 nM | 
Cn1cc(-c2ccc3c(-c4cc(NS(=O)(=O)C5CC5)cc(-c5ccc(F)nc5F)c4)cnn3c2)cn1 [Compound 8] | 65.3 nM | 
Cc1ncn(-c2ccc3c(-c4cc(NS(=O)(=O)C5CC5)cc(-c5ccc(F)cc5F)c4)cnn3c2)n1 [Compound 16] | 312 nM | 
CS(=O)(=O)Nc1cc(-c2ncc(F)cc2F)cc(-c2cnn3cc(-c4cnn(CC5COCCO5)c4)ccc23)c1 (stereo not shown) [Compound 39] | 0.95 nM | IC50 (human VEGFR2): 0.66 nM
CCS(=O)(=O)Nc1cc(-c2ccc(F)cc2F)cc(-c2cnn3cc(-c4cnn(C)c4)ccc23)n1 [Compound 43] | 0.47 nM | 
CS(=O)(=O)Nc1cc(-c2ccc(F)cc2F)cc(-c2cnn3cc(-c4ncn(CCO)n4)ccc23)c1 [Compound 18] | 256 nM | 
Cn1cc(-c2ccc3c(-c4cc(NS(C)(=O)=O)nc(-c5ccc(F)cc5F)c4)cnn3c2)cn1 [Compound 12] | 3.74 nM | 
CCS(=O)(=O)Nc1cc(-c2ncc(F)cc2F)cc(-c2cnn3cc(-c4cnn(C)c4)ccc23)c1 [Trifluoroacetate salt of compound 33] | 1.21 nM | IC50 [1]: 6.2 nM
Cn1cc(-c2ccc3c(-c4cc(NS(C)(=O)=O)cc(-c5ccc(F)cc5F)c4)cnn3c2)nn1 [Trifluoroacetate salt of compound 26] | 1.98 nM | IC50 (human VEGFR2): 2.74 nM
Cn1cc(-c2ccc3c(-c4cc(NS(=O)(=O)C5CC5)cc(-c5ncc(F)cc5F)c4)cnn3c2)cn1 [Trifluoroacetate salt of compound 11] | 0.76 nM | IC50 [1]: 10.5 nM; IC50 (human VEGFR2): 0.6 nM
Cn1cc(-c2ccc3c(-c4cc(NS(C)(=O)=O)cc(-c5ccc(F)cc5F)c4)cnn3c2)nn1 [Compound 26] |  | IC50 [1]: 7.8 nM
Cn1cc(-c2ccc3c(-c4cc(NCC5COC(C)(C)O5)cc(-c5ncc(F)cc5F)c4)cnn3c2)cn1 (stereo not shown) [Compound 48] | 0.95 nM | IC50 (human VEGFR2): 8.39 nM
CN1CCC(n2cc(-c3ccc4c(-c5cc(NS(C)(=O)=O)cc(-c6ccc(F)cc6F)c5)cnn4c3)cn2)CC1 [Compound 30] | 0.3 nM | 
Cn1cc(-c2ccc3c(-c4cc(NS(=O)(=O)C5CC5)cc(-c5cccnc5F)c4)cnn3c2)cn1 [Trifluoroacetate salt of compound 10] | 36.5 nM | 
CN1CCC(n2cc(-c3ccc4c(-c5cc(NS(C)(=O)=O)cc(-c6ncc(F)cc6F)c5)cnn4c3)cn2)CC1 [Compound 36] | 0.23 nM | 
CS(=O)(=O)Nc1cc(-c2ncc(F)cc2F)cc(-c2cnn3cc(-c4cnn(C5CCNCC5)c4)ccc23)c1 [Hydrochloride salt of compound 37] | 0.18 nM | 
Cn1nccc1-c1ccc2c(-c3cc(NS(C)(=O)=O)cc(-c4ccc(F)cc4F)c3)cnn2c1 [Compound 28] | 359 nM | 
CS(=O)(=O)Nc1cc(-c2ccc(F)cc2F)cc(-c2cnn3cc(-c4ncn(C5CCOCC5)n4)ccc23)c1 [Compound 15] | 287 nM | 
O=S(=O)(Nc1cc(-c2ncc(F)cc2F)cc(-c2cnn3cc(-c4cnn(C5CCNCC5)c4)ccc23)c1)C1CC1 [Hydrochloride salt of compound 47] | 0.45 nM | 
CS(=O)(=O)Nc1cc(-c2ccc(F)cc2F)cc(-c2cnn3cc(-c4cnn(CC(O)CO)c4)ccc23)c1 (stereo not shown) [Compound 22] | 4.38 nM | IC50 [1]: 28.5 nM; IC50 (human VEGFR2): 1.88 nM
